Data reported in patent US9120812B2, “Pyrimidooxazocine derivatives as mTOR-inhibitors” (SANOFI, priority 2012, dated 2015).
Where two headings read alike, the source gives them in different places.

Columns and labels:
[1] = target: mTOR (human recombinant aa mTOR 1360-2549) (Homo sapiens (Human), UniProt P42345); experiment: mTOR enzymatic test by TR-FRET (phosphorylation of GFP-4EBP1); type: biochemical
Outline: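 After a 30 min room-temperature kinase reaction, EDTA (10 mM final) and Tb-labelled phospho-Thr46 antibody (2 nM final) were added and incubated 60 min. Energy transfer from Tb to phosphorylated GFP-4EBP1 was read at 340 nm excitation, emissions 490/520 nm. Values derive from the 520/490 fluorescence ratio.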

[2] = target: PI3Kα (p110α/p85α) (Homo sapiens (Human), UniProt P42336); experiment: PI3Kα enzymatic test by measuring the consumption of ATP; type: biochemical
Outline: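 ATP consumption read out by KinaseGlo luminescence after a 90 min reaction of 1.7 μg/ml PI3Kα (p110α/p85α) with 2 μM ATP and 50 μM PIP2, buffered at pH 7.5 (Tris, 10 mM MgCl2, 1 mM EGTA, 0.03% Chaps, 1 mM DTT). Threefold dilution series over ≥10 000-fold range yield IC50.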

[3] = test system: U87MG tumour cells; experiment: Test of in vitro proliferation of U87MG tumour cells; type: cell-based; conditions: U87MG cells, 72 hours, read-out: U87 Cell Proliferation IC50
Protocol: Model 4: Test of in vitro Proliferation of U87MG Tumour Cells.
The cell growth is determined with the reagent CellTiter 96 AQueous One Solution Cell Proliferation Assay from Promega (Cat. No. G3581).

[4] = test system: Akt-pS473 in U87MG cells
[5] = Homo sapiens, U-87 MG, read-out: U87 Akt-pS473 % Inhibition or IC50, nM (IC50), U87MG cells

Sequence of mTOR (human recombinant aa mTOR 1360-2549) (P42345 1360-2549): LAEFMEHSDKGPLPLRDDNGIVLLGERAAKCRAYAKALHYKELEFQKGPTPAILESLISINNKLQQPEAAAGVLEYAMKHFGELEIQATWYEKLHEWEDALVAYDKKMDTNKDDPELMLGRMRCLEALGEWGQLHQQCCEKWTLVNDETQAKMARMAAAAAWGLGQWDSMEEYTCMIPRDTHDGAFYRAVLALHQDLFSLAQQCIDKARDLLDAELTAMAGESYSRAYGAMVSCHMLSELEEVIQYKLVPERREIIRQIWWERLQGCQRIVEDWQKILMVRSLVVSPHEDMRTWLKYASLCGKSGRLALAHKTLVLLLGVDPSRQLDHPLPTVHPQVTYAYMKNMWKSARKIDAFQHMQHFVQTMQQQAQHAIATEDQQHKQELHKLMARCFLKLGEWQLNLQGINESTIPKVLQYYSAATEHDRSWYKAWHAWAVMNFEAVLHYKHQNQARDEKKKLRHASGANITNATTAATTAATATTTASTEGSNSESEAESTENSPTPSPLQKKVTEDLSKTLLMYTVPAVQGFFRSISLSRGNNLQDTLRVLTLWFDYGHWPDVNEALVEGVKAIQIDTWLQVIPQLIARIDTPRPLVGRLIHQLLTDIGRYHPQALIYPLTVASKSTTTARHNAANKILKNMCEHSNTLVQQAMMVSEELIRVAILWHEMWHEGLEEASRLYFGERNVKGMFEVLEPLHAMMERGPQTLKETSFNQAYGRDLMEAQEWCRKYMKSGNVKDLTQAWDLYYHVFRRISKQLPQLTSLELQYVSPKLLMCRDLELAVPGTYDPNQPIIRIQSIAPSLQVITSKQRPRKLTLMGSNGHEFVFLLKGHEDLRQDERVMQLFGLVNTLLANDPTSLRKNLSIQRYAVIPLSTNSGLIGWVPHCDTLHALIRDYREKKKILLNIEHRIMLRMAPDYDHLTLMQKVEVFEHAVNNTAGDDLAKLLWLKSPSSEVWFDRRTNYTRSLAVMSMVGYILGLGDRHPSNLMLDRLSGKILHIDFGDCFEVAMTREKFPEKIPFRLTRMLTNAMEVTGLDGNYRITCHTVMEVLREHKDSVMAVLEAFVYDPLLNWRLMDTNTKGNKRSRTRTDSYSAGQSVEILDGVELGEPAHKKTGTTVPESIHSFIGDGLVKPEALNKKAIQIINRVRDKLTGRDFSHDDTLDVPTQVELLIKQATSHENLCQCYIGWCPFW
Sequence of PI3Kα (p110α/p85α) (P42336 whole entry): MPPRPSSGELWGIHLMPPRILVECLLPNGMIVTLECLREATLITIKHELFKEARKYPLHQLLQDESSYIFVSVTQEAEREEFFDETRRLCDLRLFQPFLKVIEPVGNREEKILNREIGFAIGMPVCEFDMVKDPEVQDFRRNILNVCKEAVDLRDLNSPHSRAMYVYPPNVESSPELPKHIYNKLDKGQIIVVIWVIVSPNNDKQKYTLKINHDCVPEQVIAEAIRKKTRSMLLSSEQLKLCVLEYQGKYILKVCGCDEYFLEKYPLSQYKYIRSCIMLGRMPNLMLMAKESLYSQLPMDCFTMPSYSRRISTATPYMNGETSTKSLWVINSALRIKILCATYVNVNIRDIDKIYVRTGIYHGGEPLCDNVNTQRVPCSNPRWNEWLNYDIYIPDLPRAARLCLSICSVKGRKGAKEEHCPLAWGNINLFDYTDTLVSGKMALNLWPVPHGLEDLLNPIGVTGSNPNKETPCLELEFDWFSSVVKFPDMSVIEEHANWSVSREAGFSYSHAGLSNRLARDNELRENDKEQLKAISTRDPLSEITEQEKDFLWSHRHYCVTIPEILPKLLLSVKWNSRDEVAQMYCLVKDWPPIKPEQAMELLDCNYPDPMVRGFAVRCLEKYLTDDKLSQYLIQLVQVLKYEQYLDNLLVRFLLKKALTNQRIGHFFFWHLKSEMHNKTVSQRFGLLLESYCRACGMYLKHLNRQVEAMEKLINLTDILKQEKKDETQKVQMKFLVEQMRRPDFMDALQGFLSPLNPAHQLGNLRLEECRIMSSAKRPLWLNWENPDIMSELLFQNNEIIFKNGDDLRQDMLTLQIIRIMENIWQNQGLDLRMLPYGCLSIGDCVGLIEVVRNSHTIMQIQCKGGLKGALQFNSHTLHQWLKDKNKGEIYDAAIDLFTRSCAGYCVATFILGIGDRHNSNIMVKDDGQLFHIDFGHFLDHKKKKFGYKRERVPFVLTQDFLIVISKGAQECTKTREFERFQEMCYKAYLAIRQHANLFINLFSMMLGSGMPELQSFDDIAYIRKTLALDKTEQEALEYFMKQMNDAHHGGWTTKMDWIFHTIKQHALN
Sequence of PI3Kα (p110α/p85α) (P27986 whole entry partner): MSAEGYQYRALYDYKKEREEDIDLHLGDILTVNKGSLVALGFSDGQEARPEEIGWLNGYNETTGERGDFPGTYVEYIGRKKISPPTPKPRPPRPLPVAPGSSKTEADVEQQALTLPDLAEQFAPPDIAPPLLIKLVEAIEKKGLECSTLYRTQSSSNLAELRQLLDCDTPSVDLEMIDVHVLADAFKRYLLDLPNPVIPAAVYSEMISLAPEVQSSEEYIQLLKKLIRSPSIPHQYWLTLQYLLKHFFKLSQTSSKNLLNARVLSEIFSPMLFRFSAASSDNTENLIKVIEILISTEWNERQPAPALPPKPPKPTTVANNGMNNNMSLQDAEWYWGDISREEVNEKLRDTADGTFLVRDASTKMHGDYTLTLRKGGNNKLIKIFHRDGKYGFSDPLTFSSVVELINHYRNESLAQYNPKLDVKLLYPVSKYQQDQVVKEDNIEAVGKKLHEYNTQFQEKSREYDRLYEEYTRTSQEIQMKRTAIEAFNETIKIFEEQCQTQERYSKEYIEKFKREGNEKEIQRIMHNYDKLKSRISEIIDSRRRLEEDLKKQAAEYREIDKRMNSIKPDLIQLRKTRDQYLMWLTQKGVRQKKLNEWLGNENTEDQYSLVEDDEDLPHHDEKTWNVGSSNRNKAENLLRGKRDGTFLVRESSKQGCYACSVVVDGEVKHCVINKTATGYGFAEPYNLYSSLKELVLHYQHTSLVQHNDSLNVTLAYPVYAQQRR

Compound	IC50 [1] [nM]	PI3Ka IC50 [2] [nM]	IC50 ([3]; Homo sapiens, U-87 MG, 72 h) [nM]	IC50 [4, 5] [nM]	IC50 [3] [nM]	IC50 ([4]; read-out: U87 Akt-pS473 % Inhibition or IC50, nM (IC50), U87MG cells) [nM]
CCN1CC(C)(C)Oc2nc(N3CC4CCC(C3)O4)nc(-c3ccc(NC(=O)Nc4ccc(N5CCN(C(=O)OC)CC5)cc4)c(F)c3)c2C1=O [Example 236, 4-[4-(3-{4-[6-Ethyl-8,8-dimethyl-2-(8-oxa-3-azabicyclo[3.2.1]oct-3-yl)-5-oxo-5,6,7,8-tetrahydro-9-oxa-1,3,6-triazabenzocyclohepten-4-yl]-2-fluorophenyl}ureido)phenyl]piperazine-1-carboxylic acid methyl ester]	112	>7200	29	20	–	–
CCN1CC(C)(C)Oc2nc(N3CC4CCC(C3)O4)nc(-c3ccc(NC(=O)Nc4ccc(N5CCS(=O)(=O)CC5)cc4)c(F)c3)c2C1=O [Example 237, 1-[4-(1,1-Dioxo-1λ6-thiomorpholin-4-yl)phenyl]-3-{4-[6-ethyl-8,8-dimethyl-2-(8-oxa-3-azabicyclo[3.2.1]oct-3-yl)-5-oxo-5,6,7,8-tetrahydro-9-oxa-1,3,6-triazabenzocyclohepten-4-yl]-2-fluorophenyl}urea]	39	>7200	49	80	–	–
C[C@@H](CO)OC(=O)Nc1ccc(-c2nc(N3CC4CCC(C3)O4)nc3c2C(=O)N(C)CC(C)(C)O3)cc1 [Example 238, {4-[6,8,8-Trimethyl-2-(8-oxa-3-azabicyclo[3.2.1]oct-3-yl)-5-oxo-5,6,7,8-tetrahydro-9-oxa-1,3,6-triazabenzocyclohepten-4-yl]phenyl}carbamic acid (S)-2-hydroxy-1-methylethyl ester]	678	>10000	1700	> 1000	–	–
CCN1CC(C)(C)Oc2nc(N3CC4CCC(C3)O4)nc(-c3ccc(NC(=O)Nc4ccc(OC)nc4)c(F)c3)c2C1=O [Example 240, 1-{4-[6-Ethyl-8,8-dimethyl-2-(8-oxa-3-azabicyclo[3.2.1]oct-3-yl)-5-oxo-5,6,7,8-tetrahydro-9-oxa-1,3,6-triazabenzocyclohepten-4-yl]-2-fluorophenyl}-3-(6-methoxypyridin-3-yl)urea]	61	>10000	–	–	75	29
CCN1CC(C)(C)Oc2nc(N3C4CCC3COC4)nc(-c3ccc(NC(=O)Nc4cc(C)nc(C)c4)c(F)c3)c2C1=O [Example 241, 1-(2,6-Dimethylpyridin-4-yl)-3-{4-[6-ethyl-8,8-dimethyl-2-(3-oxa-8-azabicyclo[3.2.1]oct-8-yl)-5-oxo-5,6,7,8-tetrahydro-9-oxa-1,3,6-triazabenzocyclohepten-4-yl]-2-fluorophenyl}urea]	165	>10000	59	43	–	–
CCN1CC(C)(C)Oc2nc(N3CCOC[C@@H]3C)nc(-c3ccc(NC(=O)Nc4cc(OC)ccn4)cc3F)c2C1=O [Example 242, 1-{4-[6-Ethyl-8,8-dimethyl-2-((S)-3-methylmorpholin-4-yl)-5-oxo-5,6,7,8-tetrahydro-9-oxa-1,3,6-triazabenzocyclohepten-4-yl]-3-fluorophenyl}-3-(4-methoxypyridin-2-yl)urea]	89	>10000	2300	770	–	–
CCN1CC(C)(C)Oc2nc(N3C4CCC3COC4)nc(-c3ccc(NC(=O)OCCO)cc3F)c2C1=O [Example 243, {4-[6-Ethyl-8,8-dimethyl-2-(3-oxa-8-azabicyclo[3.2.1]oct-8-yl)-5-oxo-5,6,7,8-tetrahydro-9-oxa-1,3,6-triazabenzocyclohepten-4-yl]-3-fluorophenyl}carbamic acid 2-hydroxyethyl ester]	63	3870	610	160	–	–
CCN1CC(C)(C)Oc2nc(N3CC4CCC(C3)O4)nc(-c3ccc(NC(=O)OCCO)cc3F)c2C1=O [Example 246, {4-[6-Ethyl-8,8-dimethyl-2-(8-oxa-3-azabicyclo[3.2.1]oct-3-yl)-5-oxo-5,6,7,8-tetrahydro-9-oxa-1,3,6-triazabenzocyclohepten-4-yl]-3-fluorophenyl}carbamic acid 2-hydroxyethyl ester]	82	>10000	1600	240	–	–
CCN1CC(C)(C)Oc2nc(N3CC4CCC(C3)O4)nc(-c3ccc(NC(=O)Nc4ccc(C#N)nc4)c(F)c3)c2C1=O [Example 247, 1-(6-Cyanopyridin-3-yl)-3-{4-[6-ethyl-8,8-dimethyl-2-(8-oxa-3-azabicyclo[3.2.1]oct-3-yl)-5-oxo-5,6,7,8-tetrahydro-9-oxa-1,3,6-triazabenzocyclohepten-4-yl]-2-fluorophenyl}urea]	26	7200	62	8	–	–
CC[C@H]1COCCN1c1ccc(NC(=O)Nc2ccc(-c3nc(N4CCOC[C@@H]4C)nc4c3C(=O)N(CC)CC(C)(C)O4)cc2F)cn1 [Example 248, 1-{4-[6-Ethyl-8,8-dimethyl-2-((S)-3-methylmorpholin-4-yl)-5-oxo-5,6,7,8-tetrahydro-9-oxa-1,3,6-triazabenzocyclohepten-4-yl]-2-fluorophenyl}-3-[6-((S)-3-ethylmorpholin-4-yl)pyridin-3-yl]urea]	68	>10000	96	29	–	–
CC[C@H]1COCCN1c1ccc(NC(=O)Nc2ccc(-c3nc(N4C5CCC4COC5)nc4c3C(=O)N(CC)CC(C)(C)O4)cc2F)cn1 [Example 249, 1-{4-[6-Ethyl-8,8-dimethyl-2-(3-oxa-8-azabicyclo[3.2.1]oct-8-yl)-5-oxo-5,6,7,8-tetrahydro-9-oxa-1,3,6-triazabenzocyclohepten-4-yl]-2-fluorophenyl}-3-[6-((S)-3-ethylmorpholin-4-yl)pyridin-3-yl]urea]	365	>10000	29	27	–	–
CCN1CC(C)(C)Oc2nc(N3CC4CCC(C3)O4)nc(-c3ccc(NC(=O)Nc4ccc(N5CCOCC5)cn4)cc3)c2C1=O [Example 250, 1-{4-[6-Ethyl-8,8-dimethyl-2-(8-oxa-3-azabicyclo[3.2.1]oct-3-yl)-5-oxo-5,6,7,8-tetrahydro-9-oxa-1,3,6-triazabenzocyclohepten-4-yl]phenyl}-3-(5-morpholin-4-ylpyridin-2-yl)urea]	36	>10000	100	38	–	–
CCN1CC(C)(C)Oc2nc(N3CC4CCC(C3)O4)nc(-c3ccc(NC(=O)Nc4ccc(N5CC6CCC(C5)O6)cn4)cc3)c2C1=O [Example 251, 1-{4-[6-Ethyl-8,8-dimethyl-2-(8-oxa-3-azabicyclo[3.2.1]oct-3-yl)-5-oxo-5,6,7,8-tetrahydro-9-oxa-1,3,6-triazabenzocyclohepten-4-yl]phenyl}-3-[5-(8-oxa-3-azabicyclo[3.2.1]oct-3-yl)pyridin-2-yl]urea]	64	>10000	340	80	–	–
CCN1CC(C)(C)Oc2nc(N3CCOC[C@@H]3C)nc(-c3ccc(NC(=O)Nc4ccc(N5C[C@@H]6C[C@H]5CO6)nc4)c(F)c3)c2C1=O [Example 252, 1-{4-[6-Ethyl-8,8-dimethyl-2-((S)-3-methylmorpholin-4-yl)-5-oxo-5,6,7,8-tetrahydro-9-oxa-1,3,6-triazabenzocyclohepten-4-yl]-2-fluorophenyl}-3-[(1S,4S)-6-(2-oxa-5-azabicyclo[2.2.1]hept-5-yl)pyridin-3-yl]urea]	68	1360	282	48	–	–
CCN1CC(C)(C)Oc2nc(N3C4CCC3COC4)nc(-c3ccc(NC(=O)Nc4ccc(N5C[C@@H]6C[C@H]5CO6)nc4)c(F)c3)c2C1=O [Example 253, 1-{4-[6-Ethyl-8,8-dimethyl-2-(3-oxa-8-azabicyclo[3.2.1]oct-8-yl)-5-oxo-5,6,7,8-tetrahydro-9-oxa-1,3,6-triazabenzocyclohepten-4-yl]-2-fluorophenyl}-3-[(1S,4S)-6-(2-oxa-5-azabicyclo[2.2.1]hept-5-yl)pyridin-3-yl]urea]	72	>10000	167	68	–	–
CCN1CC(C)(C)Oc2nc(N3C4CCC3COC4)nc(-c3ccc(NC(=O)NC4CC4)c(F)c3)c2C1=O [Example 254, 1-Cyclopropyl-3-{4-[6-ethyl-8,8-dimethyl-2-(3-oxa-8-azabicyclo[3.2.1]oct-8-yl)-5-oxo-5,6,7,8-tetrahydro-9-oxa-1,3,6-triazabenzocyclohepten-4-yl]-2-fluorophenyl}urea]	68	>10000	240	68	–	–
CCNC(=O)Nc1ccc(-c2nc(N3C4CCC3COC4)nc3c2C(=O)N(CC)CC(C)(C)O3)cc1F [Example 255, 1-Ethyl-3-{4-[6-ethyl-8,8-dimethyl-2-(3-oxa-8-azabicyclo[3.2.1]oct-8-yl)-5-oxo-5,6,7,8-tetrahydro-9-oxa-1,3,6-triazabenzocyclohepten-4-yl]-2-fluorophenyl}urea]	72	>10000	210	68	–	–
